The values that follow come from patent publication US9050344B2, “Therapeutic compounds” (Gilead Sciences, Inc., priority 2013, dated 2015).

Data set [1] has as its system HIV-IIIb. Put plainly: Test A: Antiviral Assay in MT4 Cells. The format is cell-based, HIV-1. The following applies: Human immunodeficiency virus 1, IIIB, MT4, 120 h, read-out: % inhibition at 3 μM. The method, then: Test A: Antiviral Assay in MT4 Cells
For the antiviral assay, 40 μL of 1× test concentration of 3-fold serially diluted compound in culture medium with 10% FBS was added to each well of a 384-well plate (10 concentrations) in quadruplicate. MT-4 cells were next mixed with HIV-IIIb at an m.o.i of 0.003 for 1 hour, after which time 35 μL of virus/cell mixture (2000 cells) was immediately added to each well containing 40 μL of diluted compound. The plates were then incubated at 37° C. for 5 days. After 5 days of incubation, 25 μl of 2× concentrated CellTiter-Glo™ Reagent (catalog #G7571, Promega Biosciences, Inc., Madison, Wis.) was added to each well containing MT-4 cells. Cell lysis was carried out by incubating at room temperature for 10 min and then chemiluminescence was read.

Data set [2] can be described thus: Test B: Cytotoxicity Assay (protocol of Test A, uninfected cells). Format: cell-based. The following applies: human, uninfected MT-4 cells, CellTiter-Glo. The protocol:
Test B: Cytotoxicity Assay Compound cytotoxicity and the corresponding CC50 values was determined using the same protocol as described in the antiviral assay (Test A) except that uninfected cells were used.

The structures appear in SMILES notation.

On to `NC(=O)c1cc(-c2cc(N3C(=O)c4ccccc4C3=O)cnc2[C@H](Cc2cc(F)cc(F)c2)NC(=O)Cn2nc(C(F)(F)F)c3c2C(F)(F)[C@@H]2C[C@H]32)ccc1F` [Compound 30K, 5-(2-((S)-1-(2-((3bS,4aR)-5,5-difluoro-3-(trifluoromethyl)-3b,4,4a,5-tetrahydro-1H-cyclopropa[3,4]cyclopenta[1,2-c]pyrazol-1-yl)acetamido)-2-(3,5-difluorophenyl)ethyl)-5-(1,3-dioxoisoindolin-2-yl)pyridin-3-yl)-2-fluorobenzamide], for which the inhibition at 3 µM in data set [1] stood at 48%. Moreover, the CC50 at 5 days in data set [2] is above 53.2 µM.

As for `NC(=O)c1cc(-c2cc(N)cnc2[C@H](Cc2cc(F)cc(F)c2)NC(=O)Cn2nc(C(F)(F)F)c3c2C(F)(F)[C@@H]2C[C@H]32)ccc1F` [Compound 31, 5-(5-amino-2-((S)-1-(2-((3bS,4aR)-5,5-difluoro-3-(trifluoromethyl)-3b,4,4a,5-tetrahydro-1H-cyclopropa[3,4]cyclopenta[1,2-c]pyrazol-1-yl)acetamido)-2-(3,5-difluorophenyl)ethyl)pyridin-3-yl)-2-fluorobenzamide], the inhibition at 3 µM in data set [1] came out at 96%. The molecule also yielded a cytotoxic concentration (CC50) at 5 days in data set [2] of 19.5 µM.

In the case of `NC(=O)c1cc(-c2cc(N3C(=O)c4ccccc4C3=O)cnc2[C@H](Cc2cc(F)cc(F)c2)NC(=O)Cn2nc(C(F)F)c3c2C(F)(F)CCC3(F)F)ccc1F` [Compound 32, (S)-5-(2-(1-(2-(3-(difluoromethyl)-4,4,7,7-tetrafluoro-4,5,6,7-tetrahydro-1H-indazol-1-yl)acetamido)-2-(3,5-difluorophenyl)ethyl)-5-(1,3-dioxoisoindolin-2-yl)pyridin-3-yl)-2-fluorobenzamide], in data set [1], the inhibition at 3 µM came to 37%. This molecule also yielded a CC50 at 5 days in data set [2] above 53.2 µM.

Consider `NC(=O)c1cc(-c2cc(N)cnc2[C@H](Cc2cc(F)cc(F)c2)NC(=O)Cn2nc(C(F)F)c3c2C(F)(F)CCC3(F)F)ccc1F` [Compound 33, (S)-5-(5-amino-2-(1-(2-(3-(difluoromethyl)-4,4,7,7-tetrafluoro-4,5,6,7-tetrahydro-1H-indazol-1-yl)acetamido)-2-(3,5-difluorophenyl)ethyl)pyridin-3-yl)-2-fluorobenzamide], for which the inhibition at 3 µM in data set [1] was determined as 85%. This molecule came in with a CC50 at 5 days in data set [2] of 13.3 µM.

Turning to `Cc1c(-c2cc(N)cnc2[C@H](Cc2cc(F)cc(F)c2)NC(=O)Cn2nc(C(F)(F)F)c3c2C(F)(F)[C@@H]2C[C@H]32)ccc2n[nH]c(=O)n12` [Compound 34, N—((S)-1-(5-amino-3-(5-methyl-3-oxo-2,3-dihydro-[1,2,4]triazolo[4,3-a]pyridin-6-yl)pyridin-2-yl)-2-(3,5-difluorophenyl)ethyl)-2-((3bS,4aR)-5,5-difluoro-3-(trifluoromethyl)-3b,4,4a,5-tetrahydro-1H-cyclopropa[3,4]cyclopenta[1,2-c]pyrazol-1-yl)acetamide], the inhibition at 3 µM in data set [1] was determined as 89%. The molecule also registered a CC50 at 5 days in data set [2] of 22.4 µM.

Regarding `Cn1nc(NS(C)(=O)=O)c2cccc(-c3cc(N)cnc3[C@H](Cc3cc(F)cc(F)c3)NC(=O)Cn3nc(C(F)(F)F)c4c3C(F)(F)[C@@H]3C[C@H]43)c21` [Compound 35, N—((S)-1-(5-amino-3-(1-methyl-3-(methylsulfonamido)-1H-indazol-7-yl)pyridin-2-yl)-2-(3,5-difluorophenyl)ethyl)-2-((3bS,4aR)-5,5-difluoro-3-(trifluoromethyl)-3b,4,4a,5-tetrahydro-1H-cyclopropa[3,4]cyclopenta[1,2-c]pyrazol-1-yl)acetamide], in data set [1], the inhibition at 3 µM came to 93%. In data set [2], this molecule showed a CC50 at 5 days of 23.9 µM.

Turning to `Cn1nc(NS(C)(=O)=O)c2cccc(-c3cnc(N4CC(C)(O)C4)nc3[C@H](Cc3cc(F)cc(F)c3)NC(=O)Cn3nc(C(F)(F)F)c4c3C(F)(F)[C@@H]3C[C@H]43)c21` [Compound 36C, 2-((3bS,4aR)-5,5-difluoro-3-(trifluoromethyl)-3b,4,4a,5-tetrahydro-1H-cyclopropa[3,4]cyclopenta[1,2-c]pyrazol-1-yl)-N—((S)-2-(3,5-difluorophenyl)-1-(2-(3-hydroxy-3-methylazetidin-1-yl)-5-(1-methyl-3-(methylsulfonamido)-1H-indazol-7-yl)pyrimidin-4-yl)ethyl)acetamide], in data set [1], the inhibition at 3 µM stood at 94%. Also, the midpoint of cytotoxicity in data set [2], the CC50 at 5 days, lay at 32.2 µM.

On to `Cn1nc(NS(C)(=O)=O)c2cccc(-c3cnc(N4CC5(COC5)C4)nc3[C@H](Cc3cc(F)cc(F)c3)NC(=O)Cn3nc(C(F)(F)F)c4c3C(F)(F)[C@@H]3C[C@H]43)c21` [Compound 37, 2-((3bS,4aR)-5,5-difluoro-3-(trifluoromethyl)-3b,4,4a,5-tetrahydro-1H-cyclopropa[3,4]cyclopenta[1,2-c]pyrazol-1-yl)-N—((S)-2-(3,5-difluorophenyl)-1-(5-(1-methyl-3-(methylsulfonamido)-1H-indazol-7-yl)-2-(2-oxa-6-azaspiro[3.3]heptan-6-yl)pyrimidin-4-yl)ethyl)acetamide], for which, in data set [1], the inhibition at 3 µM was determined as 95%. Moreover, it took 34 µM to reach half-maximal cytotoxicity in data set [2] (CC50 at 5 days).

Consider `CC(=O)Nc1cnc([C@H](Cc2cc(F)cc(F)c2)NC(=O)Cn2nc(C(F)(F)F)c3c2C(F)(F)[C@@H]2C[C@H]32)c(-c2cccc3c(N(C(C)=O)S(C)(=O)=O)nn(C)c23)c1` [Compound 38B], for which the inhibition at 3 µM in data set [1] was found to be 98%. The molecule also registered a CC50 at 5 days in data set [2] of 40.8 µM.

Take `CC(=O)Nc1cnc([C@H](Cc2cc(F)cc(F)c2)NC(=O)Cn2nc(C(F)(F)F)c3c2C(F)(F)[C@@H]2C[C@H]32)c(-c2cccc3c(NS(C)(=O)=O)nn(C)c23)c1` [Compound 39, N—((S)-1-(5-acetamido-3-(1-methyl-3-(methylsulfonamido)-1H-indazol-7-yl)pyridin-2-yl)-2-(3,5-difluorophenyl)ethyl)-2-((3bS,4aR)-5,5-difluoro-3-(trifluoromethyl)-3b,4,4a,5-tetrahydro-1H-cyclopropa[3,4]cyclopenta[1,2-c]pyrazol-1-yl)acetamide]: the inhibition at 3 µM in data set [1] was 92%. The same molecule gave a CC50 at 5 days in data set [2] of 29.6 µM.

Turning to `Cc1c(-c2cc(NC(=O)C(F)(F)F)cnc2[C@H](Cc2cc(F)cc(F)c2)NC(=O)Cn2nc(C(F)(F)F)c3c2C(F)(F)[C@@H]2C[C@H]32)ccc2n[nH]c(=O)n12` [Compound 40, N-(6-((S)-1-(2-((3bS,4aR)-5,5-difluoro-3-(trifluoromethyl)-3b,4,4a,5-tetrahydro-1H-cyclopropa[3,4]cyclopenta[1,2-c]pyrazol-1-yl)acetamido)-2-(3,5-difluorophenyl)ethyl)-5-(5-methyl-3-oxo-2,3-dihydro-[1,2,4]triazolo[4,3-a]pyridin-6-yl)pyridin-3-yl)-2,2,2-trifluoroacetamide], the inhibition at 3 µM in data set [1] was 96%. Also, in data set [2], the CC50 at 5 days is 24.1 µM.

As to `Cc1c(-c2cc(NS(C)(=O)=O)cnc2[C@H](Cc2cc(F)cc(F)c2)NC(=O)Cn2nc(C(F)(F)F)c3c2C(F)(F)[C@@H]2C[C@H]32)ccc2n[nH]c(=O)n12` [Compound 41E, 2-((3bS,4aR)-5,5-difluoro-3-(trifluoromethyl)-3b,4,4a,5-tetrahydro-1H-cyclopropa[3,4]cyclopenta[1,2-c]pyrazol-1-yl)-N—((S)-2-(3,5-difluorophenyl)-1-(3-(5-methyl-3-oxo-2,3-dihydro-[1,2,4]triazolo[4,3-a]pyridin-6-yl)-5-(methylsulfonamido)pyridin-2-yl)ethyl)acetamide], the inhibition at 3 µM in data set [1] worked out at 91%. Also, the CC50 at 5 days in data set [2] is above 50 µM.

Take `Cn1nc(NS(C)(=O)=O)c2cccc(-c3ccc(N4CC(C)(O)C4)nc3[C@H](Cc3cc(F)cc(F)c3)NC(=O)Cn3nc(C(F)F)c4c3C(F)(F)[C@@H]3C[C@H]43)c21` [Compound 42K, 2-((3bS,4aR)-3-(difluoromethyl)-5,5-difluoro-3b,4,4a,5-tetrahydro-1H-cyclopropa[3,4]cyclopenta[1,2-c]pyrazol-1-yl)-N—((S)-2-(3,5-difluorophenyl)-1-(6-(3-hydroxy-3-methylazetidin-1-yl)-3-(1-methyl-3-(methylsulfonamido)-1H-indazol-7-yl)pyridin-2-yl)ethyl)acetamide]: the inhibition at 3 µM in data set [1] came out at 92%. The midpoint of cytotoxicity in data set [2], the CC50 at 5 days, lay at 18.9 µM.

Regarding `Cn1nc(NS(C)(=O)=O)c2cccc(-c3ccc(N4CC(N)CC4=O)nc3[C@H](Cc3cc(F)cc(F)c3)NC(=O)Cn3nc(C(F)(F)F)c4c3C(F)(F)[C@@H]3C[C@H]43)c21` (stereo partly drawn) [Compound 43B, N-((1S)-1-(6-(4-amino-2-oxopyrrolidin-1-yl)-3-(1-methyl-3-(methylsulfonamido)-1H-indazol-7-yl)pyridin-2-yl)-2-(3,5-difluorophenyl)ethyl)-2-((3bS,4aR)-5,5-difluoro-3-(trifluoromethyl)-3b,4,4a,5-tetrahydro-1H-cyclopropa[3,4]cyclopenta[1,2-c]pyrazol-1-yl)acetamide], in data set [1], the inhibition at 3 µM was 83%. The molecule further displayed a half-maximal cytotoxic concentration (CC50) at 5 days in data set [2] of 16.9 µM.

For the molecule `Cc1nc([C@H](Cc2cc(F)cc(F)c2)NC(=O)Cn2nc(C(F)F)c3c2C(F)(F)[C@@H]2C[C@H]32)c(-c2cccc3c(NS(C)(=O)=O)nn(C)c23)cc1N` [Compound 44, N—((S)-1-(5-amino-6-methyl-3-(1-methyl-3-(methylsulfonamido)-1H-indazol-7-yl)pyridin-2-yl)-2-(3,5-difluorophenyl)ethyl)-2-((3bS,4aR)-3-(difluoromethyl)-5,5-difluoro-3b,4,4a,5-tetrahydro-1H-cyclopropa[3,4]cyclopenta[1,2-c]pyrazol-1-yl)acetamide], the inhibition at 3 µM in data set [1] is 107%. In data set [2], this molecule yielded a CC50 at 5 days of 32 µM.
